{"source": "paper PMC10030467", "about": "(Nature Communications, 2023)", "experiment_in_all_cases": "microscale thermophoresis", "type_in_all_cases": "binding", "key": {"[1]": {"biological_target": "T1, CC-SPRY (Homo sapiens, UniProt Q6ZMU5)", "T1 construct": "gene TRIM72; coiled-coil plus SPRY; E. coli; GFP-labelled for MST; dimer", "T1 sequence (Q6ZMU5 122-477)": "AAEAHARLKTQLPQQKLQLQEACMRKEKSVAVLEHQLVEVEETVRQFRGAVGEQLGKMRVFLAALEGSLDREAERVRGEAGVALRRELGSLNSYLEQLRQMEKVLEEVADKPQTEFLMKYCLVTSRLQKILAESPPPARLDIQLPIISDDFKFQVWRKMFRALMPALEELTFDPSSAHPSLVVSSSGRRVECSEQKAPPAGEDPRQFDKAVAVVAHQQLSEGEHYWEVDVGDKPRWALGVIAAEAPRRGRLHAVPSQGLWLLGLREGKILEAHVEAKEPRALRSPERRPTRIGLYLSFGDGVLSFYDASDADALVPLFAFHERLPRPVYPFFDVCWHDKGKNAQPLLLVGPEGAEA", "details": "50 mM Tris pH 8.0, 80 mM NaCl, 0.05% Tween 20, 0.3 mM TCEP; room temperature; GFP-labelled protein"}, "[2]": {"biological_target": "T2, TRIM72 (full-length; also MG53) (Homo sapiens, UniProt Q6ZMU5, R169A/R180A/R198A)", "T2 construct": "full-length residues 2-477; E. coli Rosetta (DE3), His-Sumo cut by Ulp1; GFP-labelled for MST, FLAG-tagged for PIP-Strips; dimer", "T2 sequence (Q6ZMU5 2-477 R169A/R180A/R198A)": "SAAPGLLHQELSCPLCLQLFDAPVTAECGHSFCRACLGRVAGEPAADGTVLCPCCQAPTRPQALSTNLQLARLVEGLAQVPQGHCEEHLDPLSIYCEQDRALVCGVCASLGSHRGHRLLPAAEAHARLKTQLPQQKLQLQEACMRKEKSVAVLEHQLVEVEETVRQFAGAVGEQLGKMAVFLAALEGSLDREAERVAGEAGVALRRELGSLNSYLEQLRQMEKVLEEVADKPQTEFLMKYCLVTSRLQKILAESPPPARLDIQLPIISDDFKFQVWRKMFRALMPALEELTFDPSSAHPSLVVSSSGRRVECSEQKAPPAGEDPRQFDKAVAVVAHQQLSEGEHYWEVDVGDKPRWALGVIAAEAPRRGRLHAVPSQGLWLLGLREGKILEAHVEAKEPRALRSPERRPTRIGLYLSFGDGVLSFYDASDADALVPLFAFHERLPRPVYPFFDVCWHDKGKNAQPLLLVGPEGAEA"}, "[3]": {"biological_target": "T3, SPRY domain (Homo sapiens, UniProt Q6ZMU5)", "T3 construct": "gene TRIM72; SPRY domain, residues 278-477; E. coli; GFP-labelled for MST; monomer", "T3 sequence (Q6ZMU5 278-477)": "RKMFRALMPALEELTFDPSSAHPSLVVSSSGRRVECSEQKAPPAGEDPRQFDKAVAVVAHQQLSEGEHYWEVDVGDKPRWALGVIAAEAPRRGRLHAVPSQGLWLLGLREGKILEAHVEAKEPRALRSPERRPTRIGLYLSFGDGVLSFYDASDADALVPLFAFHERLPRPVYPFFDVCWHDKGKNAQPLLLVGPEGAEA", "details": "50 mM Tris pH 8.0, 80 mM NaCl, 0.05% Tween 20, 0.3 mM TCEP; room temperature; GFP-labelled protein"}, "[4]": {"biological_target": "T4, coiled-coil domain alone (121-277) (Homo sapiens, UniProt Q6ZMU5)", "T4 construct": "gene TRIM72; coiled-coil domain, residues 121-277; E. coli; GFP-labelled for MST", "T4 sequence (Q6ZMU5 121-277)": "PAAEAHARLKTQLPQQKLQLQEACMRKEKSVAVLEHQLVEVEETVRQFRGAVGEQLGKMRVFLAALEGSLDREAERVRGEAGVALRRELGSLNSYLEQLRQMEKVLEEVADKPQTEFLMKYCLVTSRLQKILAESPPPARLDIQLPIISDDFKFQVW", "details": "50 mM Tris pH 8.0, 80 mM NaCl, 0.05% Tween 20, 0.3 mM TCEP; room temperature; GFP-labelled protein"}, "[5]": {"biological_target": "T5, TRIM72 (full-length; also MG53) (Homo sapiens, UniProt Q6ZMU5)", "T5 construct": "full-length residues 2-477; E. coli Rosetta (DE3), His-Sumo cut by Ulp1; GFP-labelled for MST, FLAG-tagged for PIP-Strips; dimer", "T5 sequence (Q6ZMU5 2-477)": "T2 sequence (Q6ZMU5 2-477 R169A/R180A/R198A) with A168R, A179R, A197R", "details": "50 mM Tris pH 8.0, 80 mM NaCl, 0.05% Tween 20, 0.3 mM TCEP; room temperature; GFP-labelled protein"}}, "note": "Residue numbers refer to the chain shown, from its start."}
{"molecule": "N[C@@H](COP(=O)(O)O)C(=O)O", "note": "[phospho-L-serine]", "values": [{"measurement": "Kd", "setting": "[1]", "result": "~10", "unit": "µM"}, {"measurement": "Kd", "setting": "[2]", "result": "~38", "unit": "µM"}, {"measurement": "Kd", "setting": "[3]", "result": "~4.7", "unit": "µM"}, {"measurement": "Kd", "setting": "[4]", "result": "~19.6", "unit": "µM"}, {"measurement": "Kd", "setting": "[5]", "result": "~10", "unit": "µM"}]}
